Results published in patent US20200339537A1, “NOVEL COMPOUND AS INHIBITOR AGAINST BINDING OF PF34 PROTEIN TO NEDD4-1 PROTEIN AND USE THEREOF” (ENHANCEDBIO INC., priority 2017, published 2020).

Assays:
[1] = tested on: PTEN (lipid phosphatase activity) in human colon cancer cell line SW620; assay: cells; type: cell-based; details: compound 5 μM, PTEN immunoprecipitation, diC8-PIP3 substrate, Biomol Green; for fold induction at 5 µM: Homo sapiens, SW-620, 48 h, read-out: PTEN activity (relative fold @5 μM)
[2] = biological target: T1, binding between p34 protein and NEDD4-1 protein (Homo sapiens, UniProt P46934+Q9UHV2); assay: Inhibitory activity on binding between p34 and NEDD4-1, FRET (HTRF) assay; details: 1×PBS pH 7.4, 0.1% BSA, 2% DMSO, 384-well; for inhibition at 10 µM: pH 7.4, compound 10 μM; for FRET result (Inhibition % @10 μM): compound 10 μM
T1 construct: FLAG or 6xHis (known only from the detection antibodies)
T1 sequence (P46934 1-1319): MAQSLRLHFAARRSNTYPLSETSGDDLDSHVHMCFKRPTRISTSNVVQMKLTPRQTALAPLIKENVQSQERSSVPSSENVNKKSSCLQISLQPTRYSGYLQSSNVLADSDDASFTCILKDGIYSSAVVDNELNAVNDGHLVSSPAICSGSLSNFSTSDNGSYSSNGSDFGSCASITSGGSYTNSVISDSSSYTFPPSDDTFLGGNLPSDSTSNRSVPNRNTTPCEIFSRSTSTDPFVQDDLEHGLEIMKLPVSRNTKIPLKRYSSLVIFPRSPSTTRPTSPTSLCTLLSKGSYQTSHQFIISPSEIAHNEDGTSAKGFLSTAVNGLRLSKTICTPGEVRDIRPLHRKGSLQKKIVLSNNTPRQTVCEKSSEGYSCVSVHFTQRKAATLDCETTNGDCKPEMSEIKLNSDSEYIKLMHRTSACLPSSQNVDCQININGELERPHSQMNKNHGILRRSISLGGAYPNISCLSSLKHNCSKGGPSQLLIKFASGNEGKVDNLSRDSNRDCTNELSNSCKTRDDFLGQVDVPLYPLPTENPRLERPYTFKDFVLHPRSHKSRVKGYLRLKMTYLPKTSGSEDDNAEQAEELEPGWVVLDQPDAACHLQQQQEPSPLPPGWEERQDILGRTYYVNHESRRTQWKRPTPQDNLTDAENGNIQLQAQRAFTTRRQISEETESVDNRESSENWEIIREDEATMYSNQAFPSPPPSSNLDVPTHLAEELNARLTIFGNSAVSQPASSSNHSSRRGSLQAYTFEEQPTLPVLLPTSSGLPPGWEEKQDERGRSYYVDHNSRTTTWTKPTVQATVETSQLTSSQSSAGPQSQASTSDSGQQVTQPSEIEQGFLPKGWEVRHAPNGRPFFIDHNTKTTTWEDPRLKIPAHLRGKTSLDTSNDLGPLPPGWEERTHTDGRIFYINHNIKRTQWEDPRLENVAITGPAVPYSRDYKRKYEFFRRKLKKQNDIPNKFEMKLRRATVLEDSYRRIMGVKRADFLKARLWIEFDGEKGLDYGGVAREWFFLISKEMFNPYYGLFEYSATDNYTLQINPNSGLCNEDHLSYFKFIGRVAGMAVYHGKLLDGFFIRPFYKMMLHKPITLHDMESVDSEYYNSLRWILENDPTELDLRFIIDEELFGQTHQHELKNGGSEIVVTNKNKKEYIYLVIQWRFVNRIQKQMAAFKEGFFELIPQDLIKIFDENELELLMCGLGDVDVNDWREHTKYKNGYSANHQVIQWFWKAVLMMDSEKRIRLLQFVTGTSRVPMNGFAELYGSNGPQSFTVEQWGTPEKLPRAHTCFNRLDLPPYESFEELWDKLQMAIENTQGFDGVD
T1 sequence (Q9UHV2 1-236): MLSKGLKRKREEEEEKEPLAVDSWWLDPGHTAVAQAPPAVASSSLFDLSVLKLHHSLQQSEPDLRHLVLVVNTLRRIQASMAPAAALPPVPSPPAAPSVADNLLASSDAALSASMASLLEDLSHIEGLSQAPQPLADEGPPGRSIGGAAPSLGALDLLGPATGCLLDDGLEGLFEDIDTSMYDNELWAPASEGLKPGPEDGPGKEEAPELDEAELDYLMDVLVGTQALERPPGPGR
Method: Inhibitory activity of the compound on binding between p34 and NEDD4-1 was evaluated using p34 protein and NEDD4-1 protein based on the HTRF technology developed by Cisbio. In this assay, a fluorescence resonance energy transfer (FRET) signal was measured in the presence of terbium-labeled anti-FLAG antibody and d2-labeled anti-6XHis antibody. Experiments were performed in 384-well plates under a condition of 1×PBS pH 7.4, 0.1% BSA, and 2% DMSO. A background signal was measured in the absence of the p34-NEDD4-1 proteins, and a non-inhibiting signal was measured with addition of only a solvent (2% DMSO). […] Subsequently, inhibitory activity of the compound on p34-NEDD4-1 was calculated in %.

inhibition at 10 µM [2] [%]	Compound	fold induction at 5 µM [1]	further results
–	CC(NC(=O)C1CCN(Cc2c[nH]c3ccc(Cl)cc23)CC1)c1nc2ccccc2[nH]1 (stereo not drawn) [Example 5]	1.5	–
59	CCC(NC(=O)C1CCN(Cc2c[nH]c3ccc(Cl)cc23)CC1)c1nc2ccccc2[nH]1 (stereo not drawn) [Example 7]	–	–
–	Cn1cc(CN2CCC(C(=O)NCc3nc4ccccc4[nH]3)CC2)c2ccccc21 [Example 59]	2	–
36.6	O=C(NCc1cnccn1)C1CCN(Cc2c[nH]c3ccc(C(F)(F)F)cc23)CC1 [Example 38]	–	–
42	O=C(NCc1cnccn1)C1CCN(Cc2ccc3[nH]ccc3c2)CC1 [Example 26]	–	–
–	O=C(NCc1nc2cc(F)c(F)cc2[nH]1)C1CCN(Cc2c[nH]c3ccccc23)CC1 [Example 53]	1.8	–
38.4	O=C(NCc1nc2ccccc2[nH]1)C1CCN(Cc2c[nH]c3cc(F)c(F)cc23)CC1 [Example 60]	–	–
–	CN(Cc1nc2ccccc2n1C)C(=O)N1CCN(Cc2c[nH]c3ccc(Cl)cc23)CC1 [Example 70]	–	PTEN activity (relative fold @5 μM) ([1]; 48 hours): 2.1 fold
–	Cc1[nH]c2ccc(CN3CCN(C(=O)NCc4nccs4)CC3)cc2c1C [Example 88]	2.2	–
–	O=C(NCc1nccs1)C1CCN(Cc2ccc3[nH]ccc3c2)CC1 [Example 19]	2.5	FRET result (Inhibition % @10 μM) [2]: 32.1%
52.3	Cn1c(CNC(=O)N2CCN(Cc3c[nH]c4ccc(Cl)cc34)CC2)nc2ccccc21 [Example 63]	–	–
42.9	Cn1c(CNC(=O)C2CCN(Cc3c[nH]c4ccccc34)CC2)nc2ccccc21 [Example 46]	–	–
42.4	Cc1ccc2nc(C(C)NC(=O)C3CCN(Cc4c[nH]c5ccc(Cl)cc45)CC3)[nH]c2c1 (stereo not drawn) [Example 2]	–	–
42.8	O=C(NCc1nc2ccccc2[nH]1)C1CCN(Cc2c[nH]c3ccc(C(F)(F)F)cc23)CC1 [Example 41]	–	–
–	CC(NC(=O)C1CCN(Cc2c[nH]c3ccccc23)CC1)c1nc2ccccc2[nH]1 (stereo not drawn) [Example 49]	1.9	–
56.6	O=C(NC(Cc1ccccc1)c1nc2ccccc2[nH]1)C1CCN(Cc2ccc3[nH]ccc3c2)CC1 (stereo not drawn) [Example 21]	–	–
52.4	O=C(NCc1nc2ccccc2[nH]1)N1CCN(Cc2c[nH]c3ccc(Cl)cc23)CC1 [Example 75]	–	–
48.1	O=C(NCc1nc2ccccc2[nH]1)C1CCN(Cc2c[nH]cn2)CC1 [Example 22]	–	–
56.2	Cn1cc(CN2CCC(C(=O)NCc3nc4ccccc4[nH]3)CC2)c2cc(F)ccc21 [Example 51]	–	–
–	O=C(NCc1cncs1)C1CN(Cc2c[nH]c3ccc(C(F)(F)F)cc23)C1 [Example 36]	1.7	–

inhibition at 10 µM [2] [%]	Compound	fold induction at 5 µM [1]	further results
34.5	O=C(NCc1nccs1)C1CCN(C(=O)c2ccc3[nH]ccc3c2)CC1 [Example 28]	–	–
–	O=C(NCc1nccs1)N1CCN(Cc2c[nH]c3ccc(Cl)cc23)CC1 [Example 76]	1.7	–
60.4	O=C(NCc1ncc[nH]1)C1CCN(Cc2ccc3[nH]ccc3c2)CC1 [Example 15]	–	–
30.5	O=C(NCc1nc2ccccc2[nH]1)C1CCN(Cc2c[nH]c3ccc(F)cc23)CC1 [Example 47]	–	–
53	CCC(NC(=O)C1CCN(Cc2ccc3[nH]ccc3c2)CC1)c1nc2ccccc2[nH]1 (stereo not drawn) [Example 24]	–	–
38.2	O=C(NCc1nc2ccccc2[nH]1)C1CCN(Cc2ccc3[nH]ccc3c2)CC1 [Example 23]	–	–
–	Cc1cc2nc(CNC(=O)C3CCN(Cc4c[nH]c5ccc(Cl)cc45)CC3)[nH]c2cc1C [Example 3]	1.5	–
58.4	O=C(NCc1ncc[nH]1)C1CCN(Cc2c[nH]c3ccc(Cl)cc23)CC1 [Example 9]	–	–
53.1	CC(NC(=O)N1CCN(Cc2c[nH]c3ccc(Cl)cc23)CC1)c1nc2ccccc2[nH]1 (stereo not drawn) [Example 65]	–	–
–	CN(Cc1nc2ccccc2n1C)C(=O)N1CCN(Cc2c[nH]c3ccc(Cl)cc23)CC1 [Example 69]	1.6	–
39	O=C(NCc1cnccn1)C1CCN(Cc2c[nH]c3ccc(Cl)cc23)CC1 [Example 10]	–	–
–	Cn1c(CNC(=O)C2CCN(Cc3ccc4[nH]ccc4c3)CC2)nc2ccccc21 [Example 27]	1.8	–
32.4	CN(Cc1nc2ccccc2[nH]1)C(=O)C1CCN(Cc2c[nH]c3ccccc23)CC1 [Example 52]	–	–
–	O=C(NCc1nc2ccccc2[nH]1)C1CCN(Cc2c[nH]c3ccc(C(F)(F)F)cc23)CC1 [Example 8]	–	FRET result (Inhibition % @10 μM) [2]: 49.4%
39.1	O=C(NCc1nccs1)C1CCN(Cc2c[nH]c3ccc(Cl)cc23)CC1 [Example 11]	–	–
56.2	Cc1ccc2nc(C(C)NC(=O)C3CCN(Cc4c[nH]c5ccccc45)CC3)[nH]c2c1 (stereo not drawn) [Example 56]	–	–
–	O=C(NCc1nc2cc(F)c(F)cc2[nH]1)C1CCN(Cc2c[nH]c3ccc(F)cc23)CC1 [Example 48]	1.6	–
–	CC(NC(=O)C1CCN(Cc2c[nH]c3ccc(F)cc23)CC1)c1nc2ccccc2[nH]1 (stereo not drawn) [Example 50]	2.6	–
42.8	Cn1c(CNC(=O)C2CCN(Cc3c[nH]c4ccc(C(F)(F)F)cc34)CC2)nc2ccccc21 [Example 40]	–	–

Compound	inhibition at 10 µM [2] [%]	fold induction at 5 µM [1]	further results
O=C(NCc1nc2ccccc2[nH]1)C1CCN(Cc2c[nH]c3ccccc23)CC1 [Example 61]	52.3	2.1	–
O=C(NCc1nccs1)N1CCN(Cc2ccc3[nH]ccc3c2)CC1 [Example 80]	49.7	2.1	–
O=C(NCc1nc2cc(F)ccc2[nH]1)C1CCN(Cc2c[nH]c3ccc(C(F)(F)F)cc23)CC1 [Example 37]	39.4	1.5	–
O=C(NCc1nccs1)C1CCN(Cc2ccc3[nH]ccc3c2)CC1 [Example 12]	39.2	–	–
O=C(NCc1cncs1)C1CCN(Cc2c[nH]c3ccc(C(F)(F)F)cc23)CC1 [Example 31]	58.6	1.5	–
O=C(NCc1cncs1)N1CCN(Cc2c[nH]c3ccc(Cl)cc23)CC1 [Example 85]	44	1.9	–
O=C(NCc1nccs1)N1CCN(Cc2c[nH]c3ccc(F)cc23)CC1 [Example 81]	50.7	2.2	–
Cc1ccc2nc(CNC(=O)C3CCN(Cc4ccc5[nH]ccc5c4)CC3)[nH]c2c1 [Example 20]	51.5	1.9	–
O=C(NCc1nc2cc(F)ccc2[nH]1)C1CCN(Cc2c[nH]c3ccc(Cl)cc23)CC1 [Example 6]	36.6	3	–
O=C(C1CCN(Cc2c[nH]c3ccc(C(F)(F)F)cc23)CC1)N1CCn2cc(C(F)(F)F)nc2C1 [Example 30]	59.1	1.5	–
O=C(Nc1ccccn1)N1CCN(Cc2ccc3[nH]ccc3c2)CC1 [Example 72]	55.5	1.9	–
O=C(NCc1nccs1)N1CCN(Cc2n[nH]c3ccccc23)CC1 [Example 79]	54.4	2.2	–
